Target: T1, human β3 receptors (Homo sapiens, UniProt P13945)
T1 construct: Full length β3 AR clones (402 amino acids) containing the last 6 amino acids of hβ3—AR; expressed in transfected cells; host or cells: CHO cells
Test: cAMP response (SPA) in CHO cells expressing cloned human β3 adrenergic receptor
Type: cell-based
Conditions: for EC50: CHO cells expressing human β3 receptor, cAMP, 30 min incubation, 10^−9 M to 10^−5 M; for IA(β3): maximal response compared to the maximal response of isoproterenol at 10^−5 M
Method: Binding to the receptors was measured in Chinese Hamster ovary (CHO) cells that were transfected with adrenergic receptors.
Cloning of Human β3-AR Genomic DNA: cDNA was constructed by ligating four polymerase chain reaction (PCR) products using the following primers: an ATG-NarI fragment, sense primer 5′-[…]3′ and anti-sense primer 5′ […]3′; a NarI-AccI fragment, 5′ […]3′ as sense and 5′ […]3′ as anti-sense primer; an AccIi-StyI fragment, sense primer 5′ […]3′ and anti-sense primer 5′ […]3′ and a StyI-TAG fragment, with sense primer 5′ […]3′ and anti-sense primer 5′ […]3′. The corresponding primer sequences are described in Mantzoros, C. […] The four fragments are ligated into a pUC 18 plasmid (Gibco-BRL) and sequenced.
CHO cells were grown in 24-well tissue culture plates in Dulbecco's Modified Eagle Media with 10% fetal bovine serum, MEM non-essential amino acids, Penicillin-Streptompycin and Geneticin. […] Isoproterenol (10^−5 M) was used as an internal standard for comparison of activity. Cells were incubated at 37° C. on a rocker for 30 min with the β3 cells and 15 min for β1 and β2 cells. Incubation was stopped with the addition of 0.2N HCl and neutralized with 2.5N NaOH. The plates, containing the cells and neutralized media, were stored at −20 degrees celsius until ready to test for cAMP using the SPA test kit (Amersham).
Data Analysis and Results: Data collected from the SPA test procedure were analyzed as per cent of the maximal isoproterenol response at 10^−5 M. Activity curves were plotted using the SAS statistical and graphics software.

T1 sequence (P13945 whole entry): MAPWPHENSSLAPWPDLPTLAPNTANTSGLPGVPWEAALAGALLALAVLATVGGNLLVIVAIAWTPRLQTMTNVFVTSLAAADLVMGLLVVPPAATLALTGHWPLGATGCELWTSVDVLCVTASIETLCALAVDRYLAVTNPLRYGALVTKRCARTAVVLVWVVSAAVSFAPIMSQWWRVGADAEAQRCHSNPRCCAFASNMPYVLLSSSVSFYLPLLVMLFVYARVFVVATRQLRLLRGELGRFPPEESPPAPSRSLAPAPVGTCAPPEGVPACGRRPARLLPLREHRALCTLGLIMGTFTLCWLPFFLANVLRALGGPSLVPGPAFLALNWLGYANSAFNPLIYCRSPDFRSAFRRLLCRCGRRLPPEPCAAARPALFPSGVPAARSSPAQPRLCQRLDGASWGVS

Compound | EC50 [µM] | IA(β3)
CS(=O)(=O)Nc1cc([C@@H](O)CNCC2CCN(S(=O)(=O)c3ccc(CNC(=O)c4ccccc4)s3)CC2)ccc1O [Example 183, N-({5-[(4-{[((2R)-2-hydroxy-2-{4-hydroxy-3-[(methylsulfonyl)-amino]-phenyl}ethyl)amino]methyl}piperidin-1-yl)sulfonyl]thien-2-yl}methyl)benzamide] | 1.41 | 0.72
COc1ccc(S(=O)(=O)N2CCC(CNC[C@H](O)COc3cccc4c3-c3ccccc3C4=O)CC2)cc1 [Example 38, 4-((2S)-2-Hydroxy-3-{[1-(4-methoxy-benzenesulfonyl)-piperidin-4-ylmethyl]-amino}-propoxy)-fluoren-9-one] | 0.365 | 0.36
CC(C)N(Cc1cc(F)ccc1F)C(=O)Nc1ccc(S(=O)(=O)N2CCC(CNC[C@H](O)c3ccc(O)c(NS(C)(=O)=O)c3)CC2)cc1 [Example 86] | 0.003 | 0.78
COc1ccc(S(=O)(=O)N2CCC(CNC[C@H](O)COc3cccc4[nH]c(=O)[nH]c34)CC2)cc1OC [Example 42, 4-((2S)-2-Hydroxy-3-{[1-(3,4-dimethoxy-benzenesulfonyl)-piperidin-4-ylmethyl]-amino}-propoxy)-1,3-dihydro-benzoimidazol-2-one] | 0.15 | 0.69
CCOC(=O)c1cnn(-c2ccc(S(=O)(=O)N3CCC(CNC[C@H](O)c4ccc(O)c(NS(C)(=O)=O)c4)CC3)cc2)c1 [Example 100, Ethyl 1-{4-[(4-{[((2R)-2-Hydroxy-2-{4-hydroxy-3-[(methylsulfonyl)amino]-phenyl}ethyl)amino]methyl}piperidin-1-yl)sulfonyl]phenyl}-1H-pyrazole-4-carboxylate] | 0.041 | 1
COC(=O)[C@@H]1CCCN1C(=O)Nc1ccc(S(=O)(=O)N2CCC(CNC[C@H](O)c3ccc(O)c(NS(C)(=O)=O)c3)CC2)cc1 [Example 111, (2S)-1-({4-[(4-{[((2R)-2-Hydroxy-2-{4-hydroxy-3-[(methylsulfonyl)amino]-phenyl}ethyl)amino]methyl}piperidin-1-yl)sulfonyl]anilino}carbonyl)pyrrolidine-2-carboxylic Acid Methyl Ester] | 0.095 | 0.9
O=C(NC1CCCCC1)N1CCC(CNC[C@H](O)COc2ccc(O)cc2)CC1 [Example 57, 4-{[(2S)-2-Hydroxy-3-(4-hydroxy-phenoxy)-propylamino]-methyl}-piperidine-1-carboxylic Acid Cyclohexylamide] | 3.19 | 0.46
OC1c2ccccc2-c2c(OC[C@@H](O)CNCC3CCN(CCC(F)(F)F)CC3)cccc21 (stereo partly drawn) [Example 14, 4-((2S)-2-Hydroxy-3-{[1-(3,3,3-trifluoro-propyl)-piperidin-4-ylmethyl]-amino}-propoxy)-9H-fluoren-9-ol] | 0.219 | 0.75
CN(Cc1cc(F)ccc1F)C(=O)Nc1ccc(S(=O)(=O)N2CCC(CNC[C@H](O)c3ccc(O)c(NS(C)(=O)=O)c3)CC2)cc1 [Example 87, N-[5-[(R)-2-[[[1-[[4-[[[[(2,5-Difluorophenyl)methyl]-methylamino]-carbonyl]amino]-phenyl]sulfonyl]-4-piperidinyl]methyl]amino]-1-hydroxyethyl]-2-hydroxyphenyl]-methanesulfonamide] | 0.007 | 1
COc1ccc(S(=O)(=O)N2CCC(CNC[C@H](O)COc3cccc4[nH]c(=O)[nH]c34)CC2)cc1 [Example 39, 4-((2S)-2-Hydroxy-3-{[1-(4-methoxy-benzenesulfonyl)-piperidin-4-ylmethyl]-amino}-propoxy)-1,3-dihydro-benzoimidazol-2-one] | 0.03 | 0.81

Continued by falling EC50, values first:

EC50 [µM] | IA(β3) | Compound
0.81 | 1.34 | Cc1c(C)c(C)c(S(=O)(=O)N2CCC(CNC[C@H](O)c3ccc(O)c(NS(C)(=O)=O)c3)CC2)c(C)c1C [Example 143, N-(2-hydroxy-5-{(1R)-1-hydroxy-2-[({1-[(2,3,4,5,6-pentamethylphenyl)suIfonyl]piperidin-4-yl}methyl)amino]ethyl}phenyl)methanesulfonamide]
0.51 | 0.76 | CN1CCN(c2ccc(S(=O)(=O)N3CCC(CNC[C@H](O)COc4ccc(O)cc4)CC3)cc2)C1=O [Example 94, 1-[4-(4-{[2-Hydroxy-3-(4-hydroxy-phenoxy)-propylamino]-methyl}-piperidine-1-sulfonyl)-phenyl]-3-methyl-imidazolidin-2-one]
0.305 | 0.9 | CCOC(=O)c1cccc(NC(=O)N2CCC(CNC[C@H](O)COc3ccc(O)cc3)CC2)c1 [Example 52, 3-[(4-{[(2S)-2-Hydroxy-3-(4-hydroxy-phenoxy)-propylamino]-methyl}-piperidine-1-carbonyl)-amino]-benzoic Acid Ethyl Ester]
0.131 | 0.93 | CS(=O)(=O)Nc1cc([C@@H](O)CNCC2CCN(S(=O)(=O)c3ccc(NC(=O)N4CCC[C@H]4C(=O)O)cc3)CC2)ccc1O [Example 112, (2S)-1-({4-[(4-{[((2R)-2-Hydroxy-2-{4-hydroxy-3-[(methylsulfonyl)amino]phenyl}-ethyl)amino]methyl}piperidin-1-yl)sulfonyl]anilino}carbonyl)pyrrolidine-2-carboxylic Acid]
0.125 | 0.82 | CCOC(=O)c1cc2ccccc2n1-c1ccc(S(=O)(=O)N2CCC(CNC[C@H](O)c3ccc(O)c(NS(C)(=O)=O)c3)CC2)cc1 [Example 95, 1-[4-(4-{[(2R)-2-Hydroxy-2-(4-hydroxy-3-methanesulfonylamino-phenyl)-ethyl-amino]-methyl}-piperidine-1-sulfonyl)-phenyl]-1H-indole-2-carboxalic Acid Ethyl Ester]
0.055 | 1 | CC(C)c1ccc(S(=O)(=O)N2CCC(CNC[C@H](O)c3ccc(O)c(NS(C)(=O)=O)c3)CC2)cc1 [Example 124, N-(2-hydroxy-5-{(1R)-1-hydroxy-2-[({1-[(4-isopropylphenyl)-sulfonyl]piperidin-4-yl}methyl)amino]ethyl}phenyl)-methanesulfonamide]
0.043 | 0.93 | CS(=O)(=O)Nc1cc([C@@H](O)CNCC2CCN(S(=O)(=O)c3ccc(-n4cc(C(=O)O)cn4)cc3)CC2)ccc1O [Example 101, 1-{4-[(4-{[((2R)-2-Hydroxy-2-{4-hydroxy-3-[(methylsulfonyl)amino]-phenyl}ethyl)amino]methyl}piperidin-1-yl)sulfonyl]phenyl}-1H-pyrazole-4-carboxylic Acid]
0.04 | 0.85 | CC(C)(C)c1ccc(S(=O)(=O)N2CCC(CNC[C@H](O)c3ccc(O)c(NS(C)(=O)=O)c3)CC2)cc1 [Example 163, N-[5-((1R)-2-{[(1-{[4-(tert-butyl)phenyl]sulfonyl}piperidin-4-yl)-methyl]amino}-1-hydroxyethyl)-2-hydroxyphenyl]-methanesulfonamide]
0.034 | 0.94 | CS(=O)(=O)Nc1cc(C(O)CNCC2CCN(S(=O)(=O)c3ccc(-c4noc(CCC(=O)O)n4)cc3)CC2)ccc1O (stereo in doubt) [Example 105, 3-(3-{4-[(4-{[((2S)-2-Hydroxy-2-{4-hydroxy-3-[(methylsulfonyl)amino]-phenyl}ethyl)amino]methyl}-1-piperidinyl)sulfonyl]phenyl}-1,2,4-oxadiazol-5-yl)propanoic Acid]
0.027 | 0.93 | CC(C)N(Cc1c(F)cccc1F)C(=O)Nc1ccc(S(=O)(=O)N2CCC(CNC[C@H](O)c3ccc(O)c(NS(C)(=O)=O)c3)CC2)cc1 [Example 84, N-(5-{(1R)-2-[(1-{4-[3-(2,6-Difluoro-benzyl)-3-isopropyl-ureido]-benzenesulfonyl}-piperidin-4-ylmethyl)-amino]-1-hydroxy-ethyl}-2-hydroxy-phenyl)-methane-sulfonamide]
0.022 | 1 | COC(=O)COc1ccc(CNC(=O)Nc2ccc(S(=O)(=O)N3CCC(CNC[C@H](O)c4ccc(O)c(NS(C)(=O)=O)c4)CC3)cc2)c(F)c1 [Example 88, [3-Fluoro-4-[[[[[4-[[4-[[[(R)-2-hydroxy-2-[4-hydroxy-3-[(methylsulfonyl)amino]-phenyl]ethyl]amino]-methyl]-1-piperidinyl]sulfonyl]phenyl]amino]-carbonyl]-amino]methyl]phenoxy]acetic Acid, Methyl Ester]
0.02 | 1.2 | CS(=O)(=O)Nc1cc([C@@H](O)CNCC2CCN(S(=O)(=O)c3ccc(NC(=O)Nc4ccccn4)cc3)CC2)ccc1O [Example 67, N-{2-Hydroxy-5-[(1R)-1-hydroxy-2-({1-[4-(3-pyridin-2-yl-ureido)-benzenesulfonyl]-piperidin-4-ylmethyl}-amino)-ethyl]-phenyl}-methanesulfonamide]

Source: patent US6506901B2, “Substituted 2-(S)-hydroxy-3-(piperidin-4-yl-methylamino)-propyl ethers and substituted 2-aryl-2-(R)-hydroxy-1-(piperidin-4-yl-methyl)-ethylamine β-3 adrenergic receptor agonists” (Wyeth, priority 2000, dated 2003)
